Source: US11401270B2, “Alcoxyamino derivatives for treating pain and pain related conditions” (ESTEVE PHARMACEUTICALS, S.A., priority 2017, dated 2022)
Like-named read-outs stand apart in the source and are kept apart here.

Tests used:
[1] = target: Human α2δ-1 subunit of Cav2.2 calcium channel (Homo sapiens (Human), UniProt P54289); assay: Binding Assay to Human α2δ-1 Subunit of Cav2.2 Calcium Channel; settings: human α2δ-1 enriched membranes, 15 nM [3H]-Gabapentin, read-out: Ki(nM) alpha2delta Hum
How it was run: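 Radioligand filtration binding at the α2δ-1 subunit, test compound at five concentrations; nonspecific binding defined with 10 μM pregabalin. Incubated 60 min at 27 °C, stopped by GF/C filtration (0.5% PEI presoaked) with ice-cold 50 mM Tris-HCl pH 7.4 washes; bound radioactivity counted by scintillation.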

[2] = target: Human norepinephrine transporter (NET) (Homo sapiens (Human), UniProt P23975); assay: Binding Assay to Human Norepinephrine Transporter (NET); settings: Table 2, dual compounds; human NET enriched membranes, 5 nM [3H]-Nisoxetin; read-out: Ki(nM) NET Hum
Protocol: Binding Assay to Human Norepinephrine Transporter (NET).
Human norepinephrine transporter (NET) enriched membranes (5 μg) were incubated with 5 nM of radiolabeled [3H]-Nisoxetin in assay buffer containing 50 mM Tris-HCl, 120 mM NaCl, 5 mM KCl, pH 7.4.
NSB (non specific binding) was measured by adding 10 μM desipramine. The binding of the test compound was measured in five different concentrations. After 60 min incubation at 4° C., binding reaction was terminated by filtering through Multiscreen GF/C (Millipore) presoaked in 0.5% polyethyleneimine in Vacuum Manifold Station, followed by 3 washes with ice-cold filtration buffer containing 50 mM Tris-HCl, 0.9% NaCl, pH 7.4.
Filter plates were dried at 60° C. for 1 hour and 30 μl of scintillation cocktail were added to each well before radioactivity reading.

Sequence of Human α2δ-1 subunit of Cav2.2 calcium channel (P54289 25-1103): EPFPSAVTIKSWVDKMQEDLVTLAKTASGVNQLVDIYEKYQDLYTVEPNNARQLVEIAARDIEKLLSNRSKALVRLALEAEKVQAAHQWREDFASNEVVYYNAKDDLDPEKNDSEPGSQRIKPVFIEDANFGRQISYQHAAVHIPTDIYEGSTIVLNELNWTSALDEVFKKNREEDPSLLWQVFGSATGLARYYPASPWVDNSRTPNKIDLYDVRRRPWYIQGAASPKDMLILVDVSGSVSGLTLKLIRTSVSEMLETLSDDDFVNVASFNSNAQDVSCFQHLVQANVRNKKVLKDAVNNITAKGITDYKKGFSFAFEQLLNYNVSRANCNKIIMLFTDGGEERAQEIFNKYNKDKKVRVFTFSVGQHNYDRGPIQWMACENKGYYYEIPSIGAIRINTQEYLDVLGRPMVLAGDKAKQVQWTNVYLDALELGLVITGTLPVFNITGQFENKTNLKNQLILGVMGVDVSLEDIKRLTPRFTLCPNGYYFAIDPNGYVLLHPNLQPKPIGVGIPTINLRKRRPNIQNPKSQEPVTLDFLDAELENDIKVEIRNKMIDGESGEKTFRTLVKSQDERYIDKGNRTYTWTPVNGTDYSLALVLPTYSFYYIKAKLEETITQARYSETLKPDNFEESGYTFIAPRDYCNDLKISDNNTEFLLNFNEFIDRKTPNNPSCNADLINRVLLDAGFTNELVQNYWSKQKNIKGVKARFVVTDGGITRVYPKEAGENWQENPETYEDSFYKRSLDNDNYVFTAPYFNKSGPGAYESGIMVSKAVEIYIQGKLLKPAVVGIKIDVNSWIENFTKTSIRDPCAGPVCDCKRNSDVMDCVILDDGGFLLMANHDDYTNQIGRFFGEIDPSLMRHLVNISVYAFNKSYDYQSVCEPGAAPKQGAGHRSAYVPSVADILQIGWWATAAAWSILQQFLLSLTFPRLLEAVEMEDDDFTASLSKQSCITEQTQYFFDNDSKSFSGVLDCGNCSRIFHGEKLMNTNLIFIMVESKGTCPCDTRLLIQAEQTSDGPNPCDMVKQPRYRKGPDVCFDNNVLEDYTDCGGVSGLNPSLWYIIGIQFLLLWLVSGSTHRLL
Sequence of Human norepinephrine transporter (NET) (P23975 whole entry): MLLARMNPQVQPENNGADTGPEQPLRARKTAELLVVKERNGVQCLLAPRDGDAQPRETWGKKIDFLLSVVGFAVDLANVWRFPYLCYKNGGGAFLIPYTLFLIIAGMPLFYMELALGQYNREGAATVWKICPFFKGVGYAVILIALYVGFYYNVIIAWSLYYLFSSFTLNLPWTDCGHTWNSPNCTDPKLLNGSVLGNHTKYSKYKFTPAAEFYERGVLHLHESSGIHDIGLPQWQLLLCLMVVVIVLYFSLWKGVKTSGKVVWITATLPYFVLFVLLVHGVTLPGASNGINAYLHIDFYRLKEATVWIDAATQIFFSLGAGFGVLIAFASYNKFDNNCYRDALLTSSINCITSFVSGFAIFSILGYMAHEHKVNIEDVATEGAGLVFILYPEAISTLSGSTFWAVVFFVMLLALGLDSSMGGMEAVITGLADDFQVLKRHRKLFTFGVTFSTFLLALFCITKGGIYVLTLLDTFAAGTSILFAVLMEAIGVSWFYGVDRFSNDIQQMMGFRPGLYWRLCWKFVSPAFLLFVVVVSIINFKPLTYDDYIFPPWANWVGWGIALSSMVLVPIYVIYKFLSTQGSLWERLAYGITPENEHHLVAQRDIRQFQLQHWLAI

| Ki ([1]; Table 1) | Ki ([1]; Table 2, dual compounds) | Ki [2] | Structure (SMILES) |
| --- | --- | --- | --- |
| < 100 nM | < 100 nM | < 100 nM | CNCC[C@H](Oc1ccc(CN2CCN(C)c3ncccc3C2=O)c(F)c1)c1ccccc1 [Example 116, (S)-4-(2-fluoro-4-(3-(methylamino)-1-phenylpropoxy)benzyl)-1-methyl-1,2,3,4-tetrahydro-5H-pyrido[2,3-e][1,4]diazepin-5-one] |
| 100 to 500 nM | 100 to 500 nM | < 100 nM | CNCCC(Oc1ccc(CN2CCN(C)c3ncccc3C2=O)cc1)c1cccc(F)c1 (stereo not drawn) [Example 117, 4-(4-(1-(3-Fluorophenyl)-3-(methylamino)propoxy)benzyl)-1-methyl-1,2,3,4-tetrahydro-5H-pyrido[2,3-e][1,4]diazepin-5-one] |
| 100 to 500 nM | 100 to 500 nM | < 100 nM | CNCCC(Oc1ccc(F)c(N2CCN(C)c3ncccc3C2=O)c1)c1cccc(F)c1 (stereo not drawn) [Example 119, 4-(2-Fluoro-5-(1-(3-ftuorophenyl)-3-(methylamino)propoxy)phenyl)-1-methyl-1,2,3,4-tetrahydro-5H-pyrido[2,3-e][1,4]diazepin-5-one] |
| < 100 nM | < 100 nM | < 100 nM | CNCC[C@H](Oc1cc(F)cc(N2CCN(C)c3ncccc3C2=O)c1)c1cccs1 [Example 120, (S)-4-(3-fluoro-5-(3-(methylamino)-1-(thiophen-2-yl)propoxy)phenyl)-1-methyl-1,2,3,4-tetrahydro-5H-pyrido[2,3-e][1,4]diazepin-5-one] |
| < 100 nM | < 100 nM | < 100 nM | CNCCC(Oc1cc(F)cc(N2CCN(C)c3ncccc3C2=O)c1)c1cccc(F)c1 (stereo not drawn) [Example 121, 4-(3-Fluoro-5-(1-(3-fluorophenyl)-3-(methylamino)propoxy)phenyl)-1-methyl-1,2,3,4-tetrahydro-5H-pyrido[2,3-e][1,4]diazepin-5-one] |
| < 100 nM | < 100 nM | < 100 nM | CNCCC(Oc1ccc(CN2CCN(C)c3ncccc3C2=O)c(F)c1)c1cccc(F)c1 (stereo not drawn) [Example 123, 4-(2-Fluoro-4-(1-(3-fluorophenyl)-3-(methylamino)propoxy)benzyl)-1-methyl-1,2,3,4-telrahydro-5H-pyrido[2,3-e][1,4]diazepin-5-one] |
| < 100 nM | < 100 nM | < 100 nM | CNCC[C@H](Oc1ccc(CN2CCN(C)c3ncccc3C2=O)c(Cl)c1)c1cccs1 [Example 126, (S)-4-(2-chloro-4-(3-(methylamino)-1-(thiophen-2-yl)propoxy)benzyl)-1-methyl-1,2,3,4-tetrahydro-5H-pyrido[2,3-e][1,4]diazepin-5-one] |
| 100 to 500 nM | 100 to 500 nM | < 100 nM | CNCCC(Oc1ccc(CN2CCN(C)c3ncccc3C2=O)c(F)c1)c1ccccc1F (stereo not drawn) [Example 129, 4-(2-Fluoro-4-(1-(2-fluorophenyl)-3-(methylamino)propoxy)benzyl)-1-methyl-1,2,3,4-tetrahydro-5H-pyrido[2,3-e][1,4]diazepin-5-one] |
| < 100 nM | < 100 nM | < 100 nM | CNCCC(Oc1ccc(CN2CCN(C)c3nc(N)ccc3C2=O)c(F)c1)c1cccc(F)c1 (stereo not drawn) [Example 131, 8-Amino-4-(2-fluoro-4-(1-(3-fluorophenyl)-3-(methylamino)propoxy)benzyl)-1-methyl-1,2,3,4-tetrahydro-5H-pyrido[2,3-e][1,4]diazepin-5-one] |
| 100 to 500 nM | 100 to 500 nM | < 100 nM | CNCC[C@H](Oc1ccc(CN2CCN(C)c3nc(OC)ccc3C2=O)c(F)c1)c1ccccc1 [Example 132, (S)-4-(2-fluoro-4-(3-(methylamino)-1-phenylpropoxy)benzyl)-8-methoxy-1-methyl-1,2,3,4-tetrahydro-5H-pyrido[2,3-e][1,4]diazepin-5-one] |

More lines, now with the values behind:

| Structure (SMILES) | Ki ([1]; Table 1) | Ki ([1]; Table 2, dual compounds) | Ki [2] |
| --- | --- | --- | --- |
| CCNc1ccc2c(n1)N(C)CCN(Cc1ccc(O[C@@H](CCNC)c3cccs3)cc1)C2=O [Example 92, (S)-8-(ethylamino)-1-methyl-4-(4-(3-(methylamino)-1-(thiophen-2-yl)propoxy)benzyl)-1,2,3,4-tetrahydro-5H-pyrido[2,3-e][1,4]diazepin-5-one] | 100 to 500 nM | 100 to 500 nM | < 100 nM |
| CNCC[C@H](Oc1ccc(CN2CCN(C)c3nc(C(F)(F)F)ccc3C2=O)cc1)c1cccs1 [Example 93, (S)-1-methyl-4-(4-(3-(methylamino)-1-(thiophen-2-yl)propoxy)benzyl)-8-(trifluoromethyl)-1,2,3,4-tetrahydro-5H-pyrido[2,3-e][1,4]diazepin-5-one] | 100 to 500 nM | 100 to 500 nM | 100 to 500 nM |
| CNCC[C@H](Oc1ccc(CN2CCN(C)c3nc(OC)ccc3C2=O)cc1)c1cccs1 [Example 94, (S)-8-methoxy-1-methyl-4-(4-(3-(methylamino)-1-(thiophen-2-yl)propoxy)benzyl)-1,2,3,4-tetrahydro-5H-pyrido[2,3-e][1,4]diazepin-5-one] | 100 to 500 nM | 100 to 500 nM | 100 to 500 nM |
| CNCC[C@H](Oc1ccc(CN2CCN(C)c3cnccc3C2=O)cc1)c1cccs1 [Example 96, (S)-1-methyl-4-(4-(3-(methylamino)-1-(thiophen-2-yl)propoxy)benzyl)-1,2,3,4-tetrahydro-5H-pyrido[3,4-e][1,4]diazepin-5-one] | 100 to 500 nM | 100 to 500 nM | 100 to 500 nM |
| CNCC[C@H](Oc1ccc(CN2CCN(C)c3cccnc3C2=O)cc1)c1cccs1 [Example 97, (S)-1-methyl-4-(4-(3-(methylamino)-1-(thiophen-2-yl)propoxy)benzyl)-1,2,3,4-tetrahydro-5H-pyrido[3,2-e][1,4]diazepin-6-one] | 500 to 3000 nM | 500 to 3000 nM | 100 to 500 nM |
| CNCC[C@H](Oc1ccc(CN2CCN(C)c3ccccc3C2=O)cc1)c1cccs1 [Example 98, (S)-1-methyl-4-(4-(3-(methylamino)-1-(thiophen-2-yl)propoxy)benzyl)-1,2,3,4-tetrahydro-5H-benzo[e][1,4]diazepin-5-one] | 500 to 3000 nM | 500 to 3000 nM | 100 to 500 nM |
| CNCCC(Oc1ccc(CN2CCN(C)c3ncccc3C2=O)cc1)c1cccs1 (stereo not drawn) [Example 99, 1-Methyl-4-(4-(3-(methylamino)-1-(thiophen-2-yl)propoxy)benzyl)-1,2,3,4-tetrahydro-5H-pyrido[2,3-e][1,4]diazepin-5-one] | < 100 nM | < 100 nM | < 100 nM |
| CNCCC(Oc1ccc(CN2CCN(C)c3nc(C)ccc3C2=O)cc1)c1cccs1 (stereo not drawn) [Example 100, 1,8-Dimethyl-4-(4-(3-(methylamino)-1-(thiophen-2-yl)propoxy)benzyl)~ 1,2,3,4-tetrahydro-5H-pyrido[2,3-e][1,4]diazepin-5-one] | 100 to 500 nM | 100 to 500 nM | 500 to 1000 nM |
| CNCC[C@H](Oc1ccc(CN2CCN(C)c3nc(N)ccc3C2=O)cc1)c1cccs1 [Example 103, (S)-8-amino-1-methyl-4-(4-(3-(methylamino)-1-(thiophen-2-yl)propoxy)benzyl)-1,2,3,4-tetrahydro-5H-pyrido[2,3-e][1,4]diazepin-5-one] | < 100 nM | < 100 nM | < 100 nM |
| CNCC[C@H](Oc1ccc(CN2CCCn3nccc3C2=O)cc1)c1cccs1 [Example 104, (S)-5-(4-(3-(methylamino)-1-(thiophen-2-yl)propoxy)benzyl)-5,6,7,8-tetrahydro-4H-pyrazolo[1,5-a][1,4]diazepin-4-one] | 100 to 500 nM | 100 to 500 nM | 100 to 500 nM |
| CNCC[C@H](Oc1ccc(CN2CCN(C)c3ncccc3C2=O)c(F)c1)c1cccs1 [Example 108, (S)-4-(2-fluoro-4-(3-(methylamino)-1-(thiophen-2-yl)propoxy)benzyl)-1-methyl-1,2,3,4-tetrahydro-5H-pyrido[2,3-e)[1,4]diazepin-5-one] | < 100 nM | < 100 nM | 100 to 500 nM |
| CNCCC(Oc1ccc(CN2CCN(C)c3nc(C)ccc3C2=O)cc1)c1ccccc1 (stereo not drawn) [Example 110, 1,8-Dimethyl-4-(4-(3-(methylamino)-1-phenylpropoxy)benzyl)-1,2,3,4-tetrahydro-5H-pyrido[2,3-e][1,4]diazepin-5-one] | 500 to 3000 nM | 500 to 3000 nM | < 100 nM |
| CCNc1ccc2c(n1)N(C)CCN(Cc1ccc(OC(CCNC)c3ccccc3)cc1)C2=O (stereo not drawn) [Example 111, 8-(Ethylamino)-1-methyl-4-(4-(3-(methylamino)-1-phenylpropoxy)benzyl)-1,2,3,4-tetrahydro-5H-pyrido[2,3-e][1,4]diazepin-5-one] | 500 to 3000 nM | 500 to 3000 nM | < 100 nM |
| CNCC[C@H](Oc1ccc(CN2CCN(C)c3ncccc3C2=O)c(C)c1)c1ccccc1 [Example 114, (S)-1-methyl-4-(2-methyl-4-(3-(methylamino)-1-phenylpropoxy)benzyl)-1,2,3,4-tetrahydro-5H-pyrido[2,3-e][1,4]diazepin-5-one] | 100 to 500 nM | 100 to 500 nM | 100 to 500 nM |
| CNCCC(Oc1ccc(CN2CCN(C)c3ncccc3C2=O)cc1)c1ccc(F)cc1 (stereo not drawn) [Example 115, 4-(4-(1-(4-Fluorophenyl)-3-(methylamino)propoxy)benzyl)-1-methyl-1,2,3,4-tetrahydro-5H-pyrido[2,3-e][1,4]diazepin-5-one] | 500 to 3000 nM | 500 to 3000 nM | < 100 nM |
